# Source: article PMC12209990, “Effect of Cytochrome P450 3A Inhibition and Induction by Itraconazole and Rifampin on Tazemetostat Pharmacokinetics in Patients With Advanced Malignancies” (Clinical Pharmacology in Drug Development, 2025)
# Where two headings read alike, the source gives them in different places. Marks after values point to notes of the source that are not given here.
# Assays:
# [1] = Safety (TEAEs) Part 1: tazemetostat coadministered with itraconazole
# Experimental: (§1) Part 1 of the study evaluated the DDI between tazemetostat and itraconazole. On the mornings of Days 1 and 15, patients received a single dose of tazemetostat 400 mg orally. On Days 3‐14, patients received tazemetostat 400 mg twice daily (morning and evening). On Days 18‐20, patients received itraconazole 200 mg orally once daily in the morning. On Days 21‐35, tazemetostat 400 mg twice daily was coadministered in the morning with a single dose of itraconazole 200 mg. On Day 36, patients received a single dose of tazemetostat 400 mg coadministered in the morning with a single dose of itraconazole 200 mg. On Days 37 and 38, patients received a single dose of itraconazole 200 mg (Figure 1A). Throughout Part 1, administration of itraconazole occurred 1 hour after a meal.
# Safety was assessed by monitoring treatment‐emergent adverse events (TEAEs) and vital signs, electrocardiography, and clinical laboratory tests. TEAEs were defined as adverse events that started or worsened in severity on or after the date of the first dose of the study drug through 30 days after the last dose. Treatment‐related TEAEs were summarized by each study drug for both study parts. Adverse events were coded using the Medical Dictionary for Regulatory Activities Version 23.1 and graded per Common Terminology Criteria for Adverse Events Version 5.0.
# [2] = parameters: method as in PMID 29473431, PMID 38520556, PMID 33492746; conditions: doses of 200‐1600 mg twice daily; cited from earlier work
# CYP3A = tested on: CYP3A; parameters: method as in PMID 29473431, PMID 38520556, PMID 33492746; conditions: in vitro; cited from earlier work
# [3] = Phase I DDI study Part 1: tazemetostat plasma PK alone and with itraconazole (noncompartmental analysis); type: in vivo, human; conditions: for RacAUC (AUC0‐12h accumulation ratio), geoLSM (90% CI) / RacCmax (Cmax accumulation ratio), geoLSM (90% CI): tazemetostat 400 mg alone, Day 15 versus Day 1; for AUC / AUC(0-t) / Cmax / half-life / Tmax: human; for Tmax: read-out: tmax, median (range)
# Excerpt: This was a Phase I, multicenter, open‐label, 2‐part study encompassing a fixed‐sequence design that aimed to characterize the PK of tazemetostat when administered as single and twice‐daily oral doses alone or in combination with either itraconazole (Part 1) or rifampin (Part 2). Secondary objectives were to evaluate the safety profile of tazemetostat when coadministered with either itraconazole (Part 1) or rifampin (Part 2).
# as §1
# In Part 1, plasma concentrations of tazemetostat following tazemetostat dosing on Days 1, 15, 21, and 36 were quantified for PK analyses before dosing (0 hour), and at 0.5, 1, 1.5, 2, 4, 6, 8, 12, 24 (Days 21‐22), 36, 48 (Days 1‐3), and up to 72 hours after dosing (Days 15‐18 and Days 36‐39).
# Plasma concentrations of tazemetostat, over the ranges of 1.00‐2000 ng/mL, were quantified by a fully validated liquid chromatography with tandem mass spectrometric detection analytical method. Samples that had no detectable peak or had the calculated concentration <1.00 ng/mL were reported as below the lower limit of quantification. Tazemetostat analysis consisted of protein precipitation extraction and separation using mobile phases of 100 mM ammonium formate/water (1:9 v/v) (mobile phase A) and 100 mM ammonium formate/acetonitrile (1:9 v/v) (mobile phase B). Detection was achieved using an API‐5500 mass spectrometer (AB Sciex) using electrospray ionization (positive‐ion mode) in the multiple reaction monitoring mode. The multiple reaction monitoring mode m/z transitions monitored were […] for tazemetostat and the dwell time was set at 300 milliseconds.
# Plasma concentration‐time data for tazemetostat were analyzed by noncompartmental analysis using the validated software program Phoenix WinNonlin Professional Version 8.3 (Certara Inc., Mountain View, CA).
# [4] = Part 1, single dose with itraconazole vs alone, Day 21 versus Day 1
# [5] = Part 1, single dose with itraconazole vs alone, Day 21 versus Day 1, listed as tazemetostat
# [6] = Part 1, steady state with itraconazole vs alone, Day 36 versus Day 15
# [7] = Part 1, steady state with itraconazole vs alone, Day 36 versus Day 15, listed as tazemetostat
# [8] = single doses, Day 21/Day 1, compared with tazemetostat alone
# [9] = twice‐daily dosing, steady state, Day 36/Day 15
smiles,measurement,setting,value
CCN(c1cc(-c2ccc(CN3CCOCC3)cc2)cc(C(=O)NCc2c(C)cc(C)[nH]c2=O)c1C)C1CCOCC1 [Tazemetostat],Deaths due to serious TEAEs,"[1]; Part 1, within 30 days following the last dose, tazemetostat with itraconazole, neither considered treatment related",Two deaths
same,"Any TEAE Grade 3 or 4, patients","[1]; human, in vivo",11 (52.4) n (%)
same,"Any TEAE leading to dose reduction, patients","[1]; human, in vivo",0 n (%)
same,"Any TEAE leading to study drug discontinuation, patients","[1]; human, in vivo",1 (4.8) n (%)
same,"Any TEAE leading to study drug interruption, patients","[1]; human, in vivo",9 (42.9) n (%)
same,"Any TESAE, patients","[1]; human, in vivo",8 (38.1) n (%)
same,"Any treatment-related TEAE Grade 3 or 4, patients","[1]; human, in vivo",2 (9.5) n (%)
same,"Any treatment-related TESAE, patients","[1]; human, in vivo",0 n (%)
same,"TEAE anemia, frequency","[1]; human, in vivo",28.6%
same,"TEAE constipation, frequency","[1]; human, in vivo",23.8%
same,"TEAE decreased appetite, frequency","[1]; human, in vivo",33%
same,"TEAE dyspnea, frequency","[1]; human, in vivo",33%
same,"TEAE fatigue, frequency","[1]; human, in vivo",28.6%
same,"TEAE nausea, frequency","[1]; human, in vivo",28.6%
same,"Treatment-related TEAE Grade 3 or 4, related to the named study drug, patients","[1]; human, in vivo",2 (9.5) n (%)
same,"Treatment-related TEAEs, related to the named study drug, patients","[1]; human, in vivo",12 (57.1) n (%)
same,"Treatment-related TESAE, related to the named study drug, patients","[1]; human, in vivo",0 n (%)
same,Treatment‐related Grade 3/4 TEAE anemia,"[1]; human, in vivo",9.5%
same,Treatment‐related Grade 3/4 TEAE hyponatremia,"[1]; human, in vivo",4.8%
same,dose proportionality of systemic exposure,[2],approximately dose proportional
same,metabolism by CYP3A,CYP3A,"mainly metabolized by cytochrome P450 (CYP), family 3, subfamily A (CYP3A)"
same,"AUC0‐12h ratio, geoLSM (90% CI)",[3]; [4],3.12 (2.44‐3.99) ^b
same,"Cmax ratio, geoLSM (90% CI)",[3]; [4],2.00 (1.60‐2.48) ^b
same,"AUC0‐12h ratio, geoLSM (90% CI)",[3]; [5],3.12
same,"Cmax ratio, geoLSM (90% CI)",[3]; [5],2.00
same,"AUC0‐12h ratio, geoLSM (90% CI)",[3]; [6],2.47 (2.02‐3.02) ^c
same,"Cmax ratio, geoLSM (90% CI)",[3]; [6],1.86 (1.49‐2.31) ^c
same,"AUC0‐12h ratio, geoLSM (90% CI)",[3]; [7],2.47
same,"Cmax ratio, geoLSM (90% CI)",[3]; [7],1.86
same,"RacAUC (AUC0‐12h accumulation ratio), geoLSM (90% CI)",[3]; Part 1,0.842 (0.726‐0.976) ^e
same,"RacCmax (Cmax accumulation ratio), geoLSM (90% CI)",[3]; Part 1,0.771 (0.662‐0.897) ^e
same,"RacAUC (AUC0‐12h accumulation ratio), geoLSM (90% CI)","[3]; Part 1, listed as tazemetostat",0.842
same,"RacCmax (Cmax accumulation ratio), geoLSM (90% CI)","[3]; Part 1, listed as tazemetostat",0.771
same,"AUC0‐12 h, GeoMean (CV%)","[3]; Part 1, tazemetostat 400 mg multiple dosing with itraconazole 200 mg once daily, Day 36, plasma",4530 (64.5) ng•h/mL
same,"t1/2, GeoMean (CV%)","[3]; Part 1, tazemetostat 400 mg single dose with itraconazole 200 mg once daily, Day 21, plasma, estimated over a 12‐hour dosing interval",2.86 (28.9) ^a hour
same,AUC,"[3]; plasma, oral, 400 mg, Part 1, tazemetostat 400 mg twice daily alone, multiple dosing, Day 15, plasma, read-out: AUC0‐12 h, GeoMean (CV%)",1830 ng·h/mL
same,AUC,"[3]; plasma, oral, 400 mg, Part 1, tazemetostat 400 mg twice daily alone, multiple dosing, Day 15, plasma, read-out: AUC0‐12 h, mean (SD)",1960 ng·h/mL
same,AUC(0-t),"[3]; plasma, oral, 400 mg, Part 1, tazemetostat 400 mg twice daily alone, multiple dosing, Day 15, plasma, read-out: AUClast, GeoMean (CV%)",2200 ng·h/mL
same,AUC(0-t),"[3]; plasma, oral, 400 mg, Part 1, tazemetostat 400 mg twice daily alone, multiple dosing, Day 15, plasma, read-out: AUClast, mean (SD)",2340 ng·h/mL
same,Cmax,"[3]; plasma, oral, 400 mg, Part 1, tazemetostat 400 mg twice daily alone, multiple dosing, Day 15, plasma, read-out: Cmax, GeoMean (CV%)",543 ng/mL
same,Cmax,"[3]; plasma, oral, 400 mg, Part 1, tazemetostat 400 mg twice daily alone, multiple dosing, Day 15, plasma, read-out: Cmax, mean (SD)",643 ng/mL
same,half-life,"[3]; plasma, oral, 400 mg, Part 1, tazemetostat 400 mg twice daily alone, multiple dosing, Day 15, plasma, read-out: t1/2, GeoMean (CV%) (converted)",481 min
same,half-life,"[3]; plasma, oral, 400 mg, Part 1, tazemetostat 400 mg twice daily alone, multiple dosing, Day 15, plasma, read-out: t1/2, mean (SD) (converted)",517 min
same,Tmax,"[3]; plasma, oral, 400 mg, Part 1, tazemetostat 400 mg twice daily alone, multiple dosing, Day 15, plasma",1.27 h
same,AUC,"[3]; plasma, oral, Part 1, tazemetostat 400 mg multiple dosing with itraconazole 200 mg once daily, Day 36, plasma, read-out: AUC0‐12 h, mean (SD)",5160 ng·h/mL
same,AUC(0-t),"[3]; plasma, oral, Part 1, tazemetostat 400 mg multiple dosing with itraconazole 200 mg once daily, Day 36, plasma, read-out: AUClast, GeoMean (CV%)",5750 ng·h/mL
same,AUC(0-t),"[3]; plasma, oral, Part 1, tazemetostat 400 mg multiple dosing with itraconazole 200 mg once daily, Day 36, plasma, read-out: AUClast, mean (SD)",6490 ng·h/mL
same,Cmax,"[3]; plasma, oral, Part 1, tazemetostat 400 mg multiple dosing with itraconazole 200 mg once daily, Day 36, plasma, read-out: Cmax, GeoMean (CV%)",1010 ng/mL
same,Cmax,"[3]; plasma, oral, Part 1, tazemetostat 400 mg multiple dosing with itraconazole 200 mg once daily, Day 36, plasma, read-out: Cmax, mean (SD)",1190 ng/mL
same,half-life,"[3]; plasma, oral, Part 1, tazemetostat 400 mg multiple dosing with itraconazole 200 mg once daily, Day 36, plasma, read-out: t1/2, GeoMean (CV%) (converted)",714 min
same,half-life,"[3]; plasma, oral, Part 1, tazemetostat 400 mg multiple dosing with itraconazole 200 mg once daily, Day 36, plasma, read-out: t1/2, mean (SD) (converted)",774 min
same,Tmax,"[3]; plasma, oral, Part 1, tazemetostat 400 mg multiple dosing with itraconazole 200 mg once daily, Day 36, plasma",1.49 h
same,half-life,"[3]; plasma, oral, Part 1, tazemetostat 400 mg single dose with itraconazole 200 mg once daily, Day 21, plasma, estimated over a 12‐hour dosing interval, read-out: t1/2, mean (SD) (converted)",177 min
same,AUC,"[3]; plasma, oral, Part 1, tazemetostat 400 mg single dose with itraconazole 200 mg once daily, Day 21, plasma, read-out: AUC0‐12 h, GeoMean (CV%)",6790 ng·h/mL
same,AUC,"[3]; plasma, oral, Part 1, tazemetostat 400 mg single dose with itraconazole 200 mg once daily, Day 21, plasma, read-out: AUC0‐12 h, mean (SD)",8000 ng·h/mL
same,AUC(0-t),"[3]; plasma, oral, Part 1, tazemetostat 400 mg single dose with itraconazole 200 mg once daily, Day 21, plasma, read-out: AUClast, GeoMean (CV%)",6720 ng·h/mL
same,AUC(0-t),"[3]; plasma, oral, Part 1, tazemetostat 400 mg single dose with itraconazole 200 mg once daily, Day 21, plasma, read-out: AUClast, mean (SD)",7930 ng·h/mL
same,Cmax,"[3]; plasma, oral, Part 1, tazemetostat 400 mg single dose with itraconazole 200 mg once daily, Day 21, plasma, read-out: Cmax, GeoMean (CV%)",1400 ng/mL
same,Cmax,"[3]; plasma, oral, Part 1, tazemetostat 400 mg single dose with itraconazole 200 mg once daily, Day 21, plasma, read-out: Cmax, mean (SD)",1640 ng/mL
same,Tmax,"[3]; plasma, oral, Part 1, tazemetostat 400 mg single dose with itraconazole 200 mg once daily, Day 21, plasma",1.53 h
same,AUC,"[3]; plasma, po, 400 mg, Part 1, tazemetostat 400 mg oral single dose alone, Day 1, plasma, read-out: AUC0‐12 h, GeoMean (CV%)",2180 ng·h/mL
same,AUC,"[3]; plasma, po, 400 mg, Part 1, tazemetostat 400 mg oral single dose alone, Day 1, plasma, read-out: AUC0‐12 h, mean (SD)",2460 ng·h/mL
same,AUC(0-t),"[3]; plasma, po, 400 mg, Part 1, tazemetostat 400 mg oral single dose alone, Day 1, plasma, read-out: AUClast, GeoMean (CV%)",2640 ng·h/mL
same,AUC(0-t),"[3]; plasma, po, 400 mg, Part 1, tazemetostat 400 mg oral single dose alone, Day 1, plasma, read-out: AUClast, mean (SD)",3250 ng·h/mL
same,Cmax,"[3]; plasma, po, 400 mg, Part 1, tazemetostat 400 mg oral single dose alone, Day 1, plasma, read-out: Cmax, GeoMean (CV%)",704 ng/mL
same,Cmax,"[3]; plasma, po, 400 mg, Part 1, tazemetostat 400 mg oral single dose alone, Day 1, plasma, read-out: Cmax, mean (SD)",803 ng/mL
same,half-life,"[3]; plasma, po, 400 mg, Part 1, tazemetostat 400 mg oral single dose alone, Day 1, plasma, read-out: t1/2, GeoMean (CV%) (converted)",358 min
same,half-life,"[3]; plasma, po, 400 mg, Part 1, tazemetostat 400 mg oral single dose alone, Day 1, plasma, read-out: t1/2, mean (SD) (converted)",368 min
same,Tmax,"[3]; plasma, po, 400 mg, Part 1, tazemetostat 400 mg oral single dose alone, Day 1, plasma",1.44 h
same,increase of tazemetostat exposure by itraconazole,"[3]; overall, single dose and steady state",two to three times
same,increase of mean AUC0‐12h by itraconazole,[3]; [8],3.12 fold
same,increase of mean Cmax by itraconazole,[3]; [8],2.00 fold
same,increase of mean steady‐state AUC0‐12h by itraconazole,[3]; [9],2.47 fold
same,increase of mean steady‐state Cmax by itraconazole,[3]; [9],1.86 fold
